Measurements published in PubChem BioAssay (NCI).
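Following 48 hours of exposure in 96-well plates, responses at five concentrations were used to interpolate endpoints linearly. The concentration for 50% growth inhibition is given as GI50. Definition used: TGI = concentration required for complete inhibition of growth.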

Columns and labels:
Assay in all cases: NCI anticancer screen, dose series, 48 h
SK-MEL-28 melanoma = test system: SK-MEL-28 melanoma
NCI-H226 lung = test system: NCI-H226 lung
HL-60(TB) leukemia = test system: HL-60(TB) leukemia
LOX IMVI melanoma = test system: LOX IMVI melanoma
UACC-62 melanoma = test system: UACC-62 melanoma
OVCAR-8 ovarian = test system: OVCAR-8 ovarian
SF-539 CNS = test system: SF-539 CNS
DU-145 prostate = test system: DU-145 prostate
UO-31 renal = test system: UO-31 renal
HT29 colon = test system: HT29 colon
SNB-19 CNS = test system: SNB-19 CNS
MDA-MB-435 = test system: MDA-MB-435
T-47D breast = test system: T-47D breast
TK-10 renal = test system: TK-10 renal
SF-295 CNS = test system: SF-295 CNS
HCT-116 colon = test system: HCT-116 colon
SK-MEL-2 melanoma = test system: SK-MEL-2 melanoma
OVCAR-3 ovarian = test system: OVCAR-3 ovarian
OVCAR-5 ovarian = test system: OVCAR-5 ovarian
COLO 205 colon = test system: COLO 205 colon
HOP-62 NSCLC = test system: HOP-62 NSCLC
MOLT-4 leukemia = test system: MOLT-4 leukemia
SW-620 colon = test system: SW-620 colon
SR leukemia = test system: SR leukemia
786-0 renal = test system: 786-0 renal
BT-549 breast = test system: BT-549 breast
HCC-2998 colon = test system: HCC-2998 colon
RXF 393 renal = test system: RXF 393 renal
SNB-75 CNS = test system: SNB-75 CNS
SN12C renal = test system: SN12C renal
NCI-H460 lung = test system: NCI-H460 lung
CAKI-1 renal = test system: CAKI-1 renal
MALME-3M melanoma = test system: MALME-3M melanoma
KM12 colon = test system: KM12 colon
CCRF-CEM leukemia = test system: CCRF-CEM leukemia
A498 renal = test system: A498 renal
ACHN renal = test system: ACHN renal
OVCAR-4 ovarian = test system: OVCAR-4 ovarian
M14 melanoma = test system: M14 melanoma
UACC-257 melanoma = test system: UACC-257 melanoma
SK-MEL-5 melanoma = test system: SK-MEL-5 melanoma
SF-268 CNS = test system: SF-268 CNS
U251 CNS = test system: U251 CNS
IGROV1 ovarian = test system: IGROV1 ovarian
HCT-15 colon = test system: HCT-15 colon
SK-OV-3 ovarian = test system: SK-OV-3 ovarian
HS 578T breast = test system: HS 578T breast
NCI-H23 lung = test system: NCI-H23 lung
K-562 leukemia = test system: K-562 leukemia
RPMI-8226 leukemia = test system: RPMI-8226 leukemia
MDA-MB-231 breast = test system: MDA-MB-231 breast
A549 NSCLC = test system: A549 NSCLC
EKVX NSCLC = test system: EKVX NSCLC
MCF7 breast = test system: MCF7 breast
PC-3 prostate = test system: PC-3 prostate
NCI-H522 lung = test system: NCI-H522 lung
NCI/ADR-RES ovarian = test system: NCI/ADR-RES ovarian

CC(=O)C1=C(O)C=C2Oc3c(C(=O)/C=C/c4cc(C(F)(F)F)cc(C(F)(F)F)c4)c(O)c(C)c(O)c3[C@]2(C)C1=O
GI50 (SK-MEL-28 melanoma): 747 nM | TGI (SK-MEL-28 melanoma): 2960 nM | GI50 (NCI-H226 lung): 2340 nM | TGI (NCI-H226 lung): 5150 nM | GI50 (HL-60(TB) leukemia): 401 nM | TGI (HL-60(TB) leukemia): 1140 nM | GI50 (LOX IMVI melanoma): 511 nM | TGI (LOX IMVI melanoma): 1890 nM | GI50 (UACC-62 melanoma): 436 nM | TGI (UACC-62 melanoma): 1270 nM | GI50 (OVCAR-8 ovarian): 496 nM | TGI (OVCAR-8 ovarian): 1910 nM | GI50 (SF-539 CNS): 1400 nM | TGI (SF-539 CNS): 4530 nM | GI50 (DU-145 prostate): 630 nM | TGI (DU-145 prostate): 4910 nM | GI50 (UO-31 renal): 438 nM | TGI (UO-31 renal): 2050 nM | GI50 (HT29 colon): 535 nM | TGI (HT29 colon): 1710 nM | GI50 (SNB-19 CNS): 674 nM | TGI (SNB-19 CNS): 4890 nM | GI50 (MDA-MB-435): 587 nM | TGI (MDA-MB-435): 2350 nM | GI50 (T-47D breast): 385 nM | TGI (T-47D breast): 1370 nM | GI50 (TK-10 renal): 587 nM | TGI (TK-10 renal): 8230 nM | GI50 (SF-295 CNS): 627 nM | TGI (SF-295 CNS): 4760 nM | GI50 (HCT-116 colon): 401 nM | TGI (HCT-116 colon): 1020 nM | GI50 (SK-MEL-2 melanoma): 448 nM | TGI (SK-MEL-2 melanoma): 1270 nM | GI50 (OVCAR-3 ovarian): 543 nM | TGI (OVCAR-3 ovarian): 2270 nM | GI50 (OVCAR-5 ovarian): 757 nM | TGI (OVCAR-5 ovarian): 4460 nM | GI50 (COLO 205 colon): 527 nM | TGI (COLO 205 colon): 1750 nM | GI50 (HOP-62 NSCLC): 1180 nM | TGI (HOP-62 NSCLC): 5170 nM | GI50 (MOLT-4 leukemia): 437 nM | TGI (MOLT-4 leukemia): 15000 nM | GI50 (SW-620 colon): 553 nM | TGI (SW-620 colon): 2190 nM | GI50 (SR leukemia): 440 nM | TGI (SR leukemia): 3320 nM | GI50 (786-0 renal): 602 nM | TGI (786-0 renal): 2350 nM | GI50 (BT-549 breast): 492 nM | TGI (BT-549 breast): 1800 nM | GI50 (HCC-2998 colon): 1530 nM | TGI (HCC-2998 colon): 3630 nM | GI50 (RXF 393 renal): 673 nM | TGI (RXF 393 renal): 3080 nM | GI50 (SNB-75 CNS): 2100 nM | TGI (SNB-75 CNS): 4910 nM | GI50 (SN12C renal): 513 nM | TGI (SN12C renal): 2020 nM | GI50 (NCI-H460 lung): 521 nM | TGI (NCI-H460 lung): 1900 nM | GI50 (CAKI-1 renal): 531 nM | TGI (CAKI-1 renal): 4830 nM | GI50 (MALME-3M melanoma): 513 nM | TGI (MALME-3M melanoma): 2420 nM | GI50 (KM12 colon): 658 nM | TGI (KM12 colon): 3230 nM | GI50 (CCRF-CEM leukemia): 487 nM | TGI (CCRF-CEM leukemia): 3820 nM | GI50 (A498 renal): 457 nM | TGI (A498 renal): 1420 nM | GI50 (ACHN renal): 552 nM | TGI (ACHN renal): 2260 nM | GI50 (OVCAR-4 ovarian): 815 nM | TGI (OVCAR-4 ovarian): 11300 nM | GI50 (M14 melanoma): 612 nM | TGI (M14 melanoma): 2310 nM | GI50 (UACC-257 melanoma): 728 nM | TGI (UACC-257 melanoma): 4540 nM | GI50 (SK-MEL-5 melanoma): 444 nM | TGI (SK-MEL-5 melanoma): 1270 nM | GI50 (SF-268 CNS): 736 nM | TGI (SF-268 CNS): 4040 nM | GI50 (U251 CNS): 532 nM | TGI (U251 CNS): 1700 nM | GI50 (IGROV1 ovarian): 671 nM | TGI (IGROV1 ovarian): 8830 nM | GI50 (HCT-15 colon): 462 nM | TGI (HCT-15 colon): 2540 nM | GI50 (SK-OV-3 ovarian): 1070 nM | TGI (SK-OV-3 ovarian): 5980 nM | GI50 (HS 578T breast): 861 nM | TGI (HS 578T breast): 5400 nM | GI50 (NCI-H23 lung): 528 nM | TGI (NCI-H23 lung): 2870 nM | GI50 (K-562 leukemia): 498 nM | TGI (K-562 leukemia): 15000 nM | GI50 (RPMI-8226 leukemia): 442 nM | TGI (RPMI-8226 leukemia): 1280 nM | GI50 (MDA-MB-231 breast): 525 nM | TGI (MDA-MB-231 breast): 1840 nM | GI50 (A549 NSCLC): 666 nM | TGI (A549 NSCLC): 4420 nM | GI50 (EKVX NSCLC): 462 nM | TGI (EKVX NSCLC): 6440 nM | GI50 (MCF7 breast): 427 nM | TGI (MCF7 breast): 1700 nM | GI50 (PC-3 prostate): 564 nM | TGI (PC-3 prostate): 2300 nM | GI50 (NCI-H522 lung): 380 nM | TGI (NCI-H522 lung): 1220 nM | GI50 (NCI/ADR-RES ovarian): 500 nM | TGI (NCI/ADR-RES ovarian): 2930 nM
